In one assay the target is T1, LPA1 receptor (Mus musculus, UniProt P61793).
T1 construct: expressed in transfected cells; host or cells: HEK293T cells (membranes)
The experiment in a line: antagonism of LPA-evoked GTP[γ35S] binding at LPA1. It counts as biochemical. The note with it: GTP[γ35S] binding. The protocol:
(§1) The appropriate receptor plasmid DNA (encoding mouse LPA1, human LPA2 or human LPA3) was mixed with equal amounts of expression plasmids (pcDNA3) encoding a mutated (C351F) rat Gi2a, cow β1, and γ2 proteins and these DNAs were used to transfect monolayers of HEK293T cells (where ‘T’ indicates expression of the SV-40 virus large T antigen) using the calcium phosphate precipitate method. After about 60 hours, cells were harvested, membranes were prepared, aliquoted and stored at −70° C. until use.
(§2) The GTP[35 γS] assay was performed as described by us previously. Membranes containing 5 ug of protein were incubated in 0.1 ml GTP-binding buffer (in mM: HEPES 50, NaCl 100, MgCl2 10, pH7.5) containing […], […], 0.1 nM GTP[35 γS] (1200 Ci/mmol), and indicated lipid(s) for 30 minutes at 30° C. Samples were analyzed for membrane-bound radionuclide using a Brandel Cell Harvester (Gaithersburg, Md.).
The X-intercept of the linear transformation is equal to the inverse log of the KI.
All compounds were characterized by ^1H and ^13C NMR, mass spectroscopy and, in certain cases, elemental analysis. A GTP[γ35S] binding assay was adapted to assess in vitro activity.
All compounds were characterized by ^1H and ^13C NMR, mass spectroscopy and, in most cases, C, H, N analyses. A membrane-based GTP[γ^35S] binding assay was adapted to assess in vitro activity at the LPA1 and LPA3 receptors.

The subject of another assay is LPA receptors. The assay can be described thus: whole cell assays of calcium mobilization or inhibition of cAMP accumulation, agonist activity. It counts as cell-based. Here is the method: (§3) Assays for cAMP accumulation were conducted on populations of 5×10^5 cells stimulated with […] in the presence of the phosphodiesterase inhibitor isomethylbutylxanthine (IBMX) for 15 minutes at 30° C. cAMP was measured by automated radioimmunoassay.
A FLIPR™ (Molecular Devices, Inc.) was used to measure intracellular calcium in A431 and HEK293T cells. A431 cells were seeded (˜50,000 cells/well) in 96-well clear bottom black microplates (Corning Costar Corp., Cambridge, Mass.) and left overnight in CO2 incubator at 37° C. HEK293T cells were treated likewise, but seeded onto poly D-lysine coated microplates (Becton Dickinson, Franklin Lakes, N.J.). A431 cells were dye-loaded with 4 μM Fluo-3 AM ester (Molecular Probes Inc., Eugene, Oreg.) in a loading buffer (1×HBSS buffer, pH 7.4, containing 20 mM HEPES, 0.1% BSA, and 2.5 mM probenecid) for 1 hour at 37° C. Cells were then washed four times with the loading buffer and exposed in the FLIPR™ to sets of compounds. HEK293T cells were loaded with 2 μM Fluo-4 AM ester (Molecular Probes Inc., Eugene, Oreg.) in the same loading buffer without probenecid for 30 minutes and washed four times before being exposed to compounds in the FLIPR™. […]
The same activity was determined with human LPA1 using a recombinant baculovirus-infected insect Sf9 cell membrane preparation.
In general terms: Calcium assays in cells follow changes in intracellular calcium, usually with a dye or a luminescent sensor.

Assay [1] has as its target T2, mouse LPA1 (Mus musculus, UniProt P61793). The experiment in a line: GTP[γ35S] binding assay, agonist activity at LPA1. It counts as biochemical. On the set-up: expressed in transfected cells; host or cells: HEK293T cells (membranes). Here is the method:
as §1
as §2, with “Md.). The C351F mutation renders the Gi2α protein resistant to inactivation by pertussis toxin or the alkylating agent N-ethylmaleimide; however in practice background binding was sufficiently low to obviate these maneuvers.” for “Md.).”
(§4) This assay isolates each recombinant LPA receptor and allows analysis of all three receptors using the same system.
(§5) Membranes prepared from these cells are used to measure GTPγ[^35S] binding as a function of test compound concentration. The resulting dose-response curves provide relative potency (EC50) and efficacy (Emax) for the test compounds.

The target in assay [2] is T3, human LPA3 (Homo sapiens, UniProt Q9UBY5).
T3 sequence (Q9UBY5 1-353): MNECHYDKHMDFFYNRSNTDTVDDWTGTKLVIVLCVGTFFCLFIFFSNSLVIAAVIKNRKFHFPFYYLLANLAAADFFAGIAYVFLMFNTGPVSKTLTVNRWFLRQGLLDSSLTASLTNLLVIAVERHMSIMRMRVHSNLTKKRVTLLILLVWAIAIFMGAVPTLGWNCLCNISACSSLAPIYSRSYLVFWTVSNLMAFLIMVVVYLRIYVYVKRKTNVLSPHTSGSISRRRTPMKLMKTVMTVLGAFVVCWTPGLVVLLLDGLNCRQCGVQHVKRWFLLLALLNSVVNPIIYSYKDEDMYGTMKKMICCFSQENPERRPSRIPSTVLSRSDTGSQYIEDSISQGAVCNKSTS
The experiment in a line: GTP[γ35S] binding assay, agonist activity at LPA3. Also on record: expressed in transfected cells; host or cells: HEK293T cells (membranes). It counts as biochemical. The protocol:
as §1
as §2, with “Md.). The C351F mutation renders the Gi2α protein resistant to inactivation by pertussis toxin or the alkylating agent N-ethylmaleimide; however in practice background binding was sufficiently low to obviate these maneuvers.” for “Md.).”
as §4, §5
(In general: Binding of GTPγS marks nucleotide exchange on a G protein.)

Assay [3] addresses T4, human LPA2 (Homo sapiens, UniProt Q9HBW0). The assay can be described thus: antagonism of LPA-evoked GTP[γ35S] binding at LPA2. It is filed as biochemical. On the set-up: expressed in transfected cells; host or cells: HEK293T cells (membranes). Here is the method:
as §1
as §2, with “Md.). The C351F mutation renders the Gi2α protein resistant to inactivation by pertussis toxin or the alkylating agent N-ethylmaleimide; however in practice background binding was sufficiently low to obviate these maneuvers.” for “Md.).”
All compounds were characterized by ^1H and ^13C NMR, mass spectroscopy and, in certain cases, elemental analysis. A GTP[γ35S] binding assay was adapted to assess in vitro activity. […] The Ki values as determined by Schild regression are shown for the LPA1 receptor. […]

The target of another assay is T5, LPP1 (PAP2a) (Homo sapiens, UniProt O14494).
T5 sequence (O14494 1-284): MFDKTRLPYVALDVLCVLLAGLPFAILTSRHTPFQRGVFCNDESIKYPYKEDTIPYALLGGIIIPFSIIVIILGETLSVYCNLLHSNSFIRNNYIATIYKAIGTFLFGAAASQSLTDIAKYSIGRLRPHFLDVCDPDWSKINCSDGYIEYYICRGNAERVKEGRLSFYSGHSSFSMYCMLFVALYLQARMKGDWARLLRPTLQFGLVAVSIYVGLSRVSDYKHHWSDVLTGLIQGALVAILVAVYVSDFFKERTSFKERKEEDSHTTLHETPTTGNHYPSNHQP
The experiment in a line: LPP inhibition, competition with [32P]LPA, LPP1. It is filed as biochemical. The settings on record: competition with 50 nM [32P]LPA. Here is the method: (§6) NOHPP was also tested for activity at the three cloned LPPs. Although the phosphonate head group eliminates the possibility of NOHPP acting as a substrate, it is possible that the compound could be a competitive inhibitor.

The target of a further assay is T6, LPP3 (PAP2b) (Homo sapiens, UniProt O14495).
T6 sequence (O14495 1-311): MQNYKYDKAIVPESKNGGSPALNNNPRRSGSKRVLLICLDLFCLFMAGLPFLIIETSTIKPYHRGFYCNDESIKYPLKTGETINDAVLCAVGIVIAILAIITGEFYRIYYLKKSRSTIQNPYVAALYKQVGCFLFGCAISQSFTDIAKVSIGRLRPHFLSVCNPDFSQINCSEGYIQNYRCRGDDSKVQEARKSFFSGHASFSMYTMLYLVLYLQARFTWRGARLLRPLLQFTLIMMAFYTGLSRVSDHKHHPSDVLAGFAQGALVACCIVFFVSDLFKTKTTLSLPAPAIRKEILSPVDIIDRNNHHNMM
The experiment in a line: LPP inhibition, competition with [32P]LPA, LPP3. The settings on record: competition with 50 nM [32P]LPA. It counts as biochemical. Here is the method:
as §6

The target in assay [4] is T4, human LPA2. The assay can be described thus: GTP[γ35S] binding assay, agonist activity at LPA2. It counts as biochemical. Also on record: expressed in transfected cells; host or cells: HEK293T cells (membranes). The protocol:
as §1, §2, §5

A further assay has as its system Xenopus laevis ooctyes. The experiment in a line: chloride conductance in Xenopus laevis oocytes, endogenous receptor. It is filed as cell-based. Here is the method:
(§7) wls-b8L and the other phosphonates were also tested also for activity in three whole cell assays. […] Finally, the activity of wls-b8L in activating a chloride conductance in Xenopus laevis ooctyes was measured.

The subject of a further assay is human platelets. The experiment in a line: aggregation of human platelets. The note with it: concentrations up to 10 micromolar. It counts as cell-based. An excerpt: wls-b8L is expected to be resistant to hydrolysis by phosphohydrolases by virtue of its containing a phosphonate, rather than a phosphate, group. Furthermore this chemical entity (wls-b8L) has two additional desirable properties.

The target of assay [5] is T2, mouse LPA1. The assay can be described thus: cAMP accumulation in RH7777 cells expressing LPA1. It is filed as cell-based. Also on record: expressed in transfected cells. The settings on record: concentration of 1 μM. The protocol: as §3
Rat hepatoma RH7777 cell monolayers were transfected with the mLPA1 plasmid DNA using the calcium phosphate precipitate method and clonal populations expressing the neomycin phosphotransferase gene were selected by addition of geneticin (G418) to the culture media. The RH7777 cells were grown in monolayers at 37° C. in a 5% CO02/95% air atmosphere in growth media consisting of: 90% MEM, 10% fetal bovine serum, 2 mM glutamine and 1 mM sodium pyruvate.
as §7
On the technique in general: cAMP levels reflect the balance of adenylyl cyclase and phosphodiesterase activity.

Assay [6] has as its target T3, human LPA3. The assay can be described thus: chloride conductance in Xenopus oocytes injected with human LPA3 mRNA. It counts as cell-based. Also on record: expressed in transfected cells; host or cells: Xenopus laevis oocytes injected with mRNA. The settings on record: 10 μM applied to the oocyte surface. Here is the method:
as §7

Assay [7] has as its target T4, human LPA2. The assay can be described thus: chloride conductance in Xenopus oocytes injected with human LPA2 mRNA. It counts as cell-based. Also on record: expressed in transfected cells; host or cells: Xenopus laevis oocytes injected with mRNA. The note with it: 10 μM applied to the oocyte surface. The protocol: as §7

The values that follow come from US7820703B2, “Lysophosphatidic acid receptor selective antagonists” (University of Virginia Patent Foundation, priority 2004, dated 2010).

Entries after “also recorded” stand apart in the source; their conditions may differ.

T2 sequence (P61793 whole entry): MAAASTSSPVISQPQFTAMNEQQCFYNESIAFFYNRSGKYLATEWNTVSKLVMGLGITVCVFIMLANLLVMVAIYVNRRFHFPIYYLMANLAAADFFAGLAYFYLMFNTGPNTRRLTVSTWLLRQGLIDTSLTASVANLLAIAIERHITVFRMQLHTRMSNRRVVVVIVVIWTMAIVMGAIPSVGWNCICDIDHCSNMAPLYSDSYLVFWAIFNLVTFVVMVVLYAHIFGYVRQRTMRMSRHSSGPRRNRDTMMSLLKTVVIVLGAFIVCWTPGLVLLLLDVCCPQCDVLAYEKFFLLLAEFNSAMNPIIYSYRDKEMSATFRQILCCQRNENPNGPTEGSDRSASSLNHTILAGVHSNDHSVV
T4 sequence (Q9HBW0 whole entry): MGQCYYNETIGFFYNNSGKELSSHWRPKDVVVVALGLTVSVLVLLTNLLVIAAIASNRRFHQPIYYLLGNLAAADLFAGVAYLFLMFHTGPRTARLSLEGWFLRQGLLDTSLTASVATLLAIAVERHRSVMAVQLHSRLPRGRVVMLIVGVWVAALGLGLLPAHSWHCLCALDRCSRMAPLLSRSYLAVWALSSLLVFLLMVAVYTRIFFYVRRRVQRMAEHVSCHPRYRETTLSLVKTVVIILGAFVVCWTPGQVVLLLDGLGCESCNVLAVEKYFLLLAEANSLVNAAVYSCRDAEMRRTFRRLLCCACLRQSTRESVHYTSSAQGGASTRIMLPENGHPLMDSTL
T1 sequence (P61793 whole entry): as the sequence (P61793 whole entry) above

In the case of `CCCCCCCC/C=C\CCCCCCCC(=O)N[C@@H](COP(=O)(O)O)Cc1ccccc1` [VPC12084], the “antagonist activity at LPA1, in words” value on LPA1 receptor is “did block LPA activity”. Besides, the “agonist activity in whole cell assays” value in the assay on LPA receptors was “appreciable agonist activity”.

Regarding `CCCCCCCC/C=C\CCCCCCCC(=O)N[C@@H](COP(=O)(O)O)Cc1ccc(OCc2ccc(CCCCC)cc2)cc1` [VPC31162], on mouse LPA1 [1], the “agonist activity at LPA1, in words” value is “agonist”. Besides, the “agonist activity at LPA3, in words” value at human LPA3 [2] is “agonist”. Further, the “antagonist activity at LPA2, in words” value on human LPA2 [3] is “antagonist activity”.

Turning to `CCCCCCCC/C=C\CCCCCCCC(=O)NCCC(O)P(=O)(O)O` (racemic) [NOHPP, (9Z)-N-(rac-3-hydroxy-3-phosphonopropyl)octadec-9-enamide], at LPP1 (PAP2a), the “inhibition of LPP1” value is listed as “to a lesser extent”. Further, the “inhibition of LPP3” value was “inhibited” on LPP3 (PAP2b) and “markedly better at the PAP2b (LPP3) than PAP2a (LPP1)” on LPP3 (PAP2b) (listed as VPC12031). The “agonist activity at LPA1, in words” value on mouse LPA1 [1] is given as “fully efficacious; also recorded: as efficacious as, but somewhat less potent than, LPA”. Further, the “agonist activity at LPA2, in words” value at human LPA2 [4] was “fully efficacious; also recorded: as efficacious as, but somewhat less potent than, LPA”. The “agonist activity at LPA3, in words” value on human LPA3 [2] was “little activity; also recorded: distinctly less potent and far less efficacious than LPA”.

`CCCCCCCC/C=C\CCCCCCCC(=O)NCCCP(=O)(O)O` [wls-b8L, (9Z)-N-(3-phosphonopropyl)octadec-9-enamide]: in the assay on Xenopus laevis ooctyes, the “activating a chloride conductance, endogenous receptor” value is “does not evoke this response”. Besides, in the assay on human platelets, the “aggregation of human platelets” value is listed as “does not elicit aggregation”. For the same molecule, the “inhibition of cAMP accumulation, efficacy” value against mouse LPA1 [5] is listed as “fully efficacious”. For the same molecule, the “agonist activity at LPA1, in words” value at mouse LPA1 [1] was “more potent and efficacious at LPA1 than at either LPA2 or LPA3”. In addition, the “chloride conductance response, oocytes injected with human LPA3 mRNA” value at human LPA3 [6] is “very modest response”. The “chloride conductance response, oocytes injected with human LPA2 mRNA” value at human LPA2 [7] is “very modest response”.
